Legend:
[1] = oral glucose tolerance test in overnight fasted rats; format: in vivo, male Sprague Dawley rats (Crl:CD(SD)); conditions: single oral dose 30 min before oral glucose load 2 g/kg; Cpd. A 1 mg/kg, dapagliflozin 0.3 mg/kg, combination at same doses; non-diabetic rats, n=5/group; blood glucose up to 120 min
Procedure: The following example show the beneficial effect on glycemic control of the combination of a SGLT2 inhibitor and a DPP IV inhibitor according to the present invention as compared to the respective monotherapies. All experimental protocols concerning the use of laboratory animals are reviewed by a federal Ethics Committee and approved by governmental authorities. According to this example an oral glucose tolerance test is performed in overnight fasted male Sprague Dawley rats (Crl:CD(SD)) with a body weight of about 200 g. A pre-dose blood sample is obtained by tail bleed. Blood glucose is measured with a glucometer, and the animals are randomized for blood glucose (n=5/group). Subsequently, the groups receive a single oral administration of either vehicle alone (0.5% aqueous hydroxyethylcellulose containing 0.015% Polysorbat 80) or vehicle containing either the SGLT2 inhibitor or the DPPIV inhibitor or the combination of the SGLT2 inhibitor with the DPPIV inhibitor. The animals receive an oral glucose load (2 g/kg) 30 min after compound administration. Blood glucose is measured in tail blood 30 min, 60 min, 90 min, and 120 min after the glucose challenge. Glucose excursion is quantified by calculating the reactive glucose AUC. The data are presented as mean±S.E.M. Statistical comparisons are conducted by Student's t test.
“Cpd. […]

[2] = metformin on its own, in the diabetic; cited from earlier work

CC#CCn1c(N2CCC[C@@H](N)C2)nc2c1c(=O)n(Cc1nc(C)c3ccccc3n1)c(=O)n2C [Cpd. A, 1-[(4-methyl-quinazolin-2-yl)methyl]-3-methyl-7-(2-butyn-1-yl)-8-(3-(R)-amino-piperidin-1-yl)-xanthine]
reduction of glucose excursion (reactive glucose AUC) [1]: 25%

CCOc1ccc(Cc2cc([C@@H]3O[C@H](CO)[C@@H](O)[C@H](O)[C@H]3O)ccc2Cl)cc1 [dapagliflozin, Dapagliflozin]
reduction of glucose excursion (reactive glucose AUC) [1]: 31%

CN(C)C(=N)N=C(N)N [metformin]
average improvement in the HbA1c value [2]: 1.0-1.5%

— US20110098240A1, “PHARMACEUTICAL COMPOSITION COMPRISING A SGLT2 INHIBITOR IN COMBINATION WITH A DPP-IV INHIBITOR” (BOEHRINGER INGELHEIM INTERNATIONAL GMBH, priority 2007, published 2011)
